Data reported in US20240238255A1, “KL1333 FOR USE IN MEDICINE” (ABLIVA AB, priority 2021, published 2024).

Key:
[1] = test system: patients with primary mitochondrial disease; test: 30 Second Sit-to-Stand Test in primary mitochondrial disease patients; assay type: in vivo, human; settings: 50 mg QD for 10 days, versus placebo; number of sit to stand repetitions
[2] = test system: patients with primary mitochondrial disease; test: Safety and tolerability in patients with primary mitochondrial disease (Part C); assay type: in vivo; settings: multiple oral QD doses of 50 mg for 10 days
Excerpt: (§1) Part C will comprise a randomised, multiple-dose, single-group, placebo-controlled study. A total of 8 patients diagnosed with any mitochondrial disease will be enrolled in this part of the study. Part C may start after the dose selection conference has been completed for the final cohort of Part B, at a daily dose no higher than the highest well-tolerated dose in Part B.
Two patients will be initially dosed, with 1 patient receiving KL1333 and 1 patient receiving placebo. If there are no safety or tolerability concerns in these patients following the Day 4 visit, the remaining 6 patients, with 5 patients receiving KL1333 and 1 patient receiving placebo, will be enrolled on a rolling basis. In the event there are safety concerns following completion of the 2 sentinel patients without meeting stopping criteria, the Sponsor may add intermediate cohorts if the safety evaluation in intermediate cohorts will be needed. The dosing schedule of intermediate cohorts will be the same as that of the planned cohort. The schedule of safety assessments of intermediate cohorts will be the same as that of the planned cohort as a general rule. Whether or not to add safety assessments in the intermediate cohorts will be determined by the Sponsor.
It is planned for patients to receive study drug QD on Days 1 to 10. […]

[3] = Drug substance properties; assay type: physicochemical; settings: crystalline powder
Excerpt: KL-1333 is a drug substance with a molecular mass of 240.26 g/mol. […] It is manufactured via multi-step chemical synthesis.

[4] = test system: cells derived from patients with MELAS; test: Cellular models, including cells derived from patients with MELAS; assay type: cell-based, human; settings: including MELAS patient-derived cells
healthy subjects = test: Safety and tolerability in healthy subjects (Parts A, B, D); assay type: in vivo, human
Procedure: Part A will comprise a randomised, single-dose, single-sequence, placebo-controlled study. Eight healthy subjects will be studied in a single cohort (Group A1). Potential subjects will be screened to assess their eligibility to enter the study within 28 days prior to the first dose administration. Subjects will participate in 2 treatment periods. For each treatment period, subjects will reside at the Phase I clinical site from Days −1 to 3 (48 hours postdose). Subjects will return to the clinical site for outpatient visits on Days 4 and 5. There will be at least a 10-day washout between doses (from Period 1, Day 1 to Period 2, Day 1).
Six subjects will be randomised to receive 25 mg KL1333 and 2 subjects will be randomised to receive placebo, and subjects will receive the same treatment in both treatment periods. On Treatment Period 1, Day 1, subjects will receive a single oral dose of study drug following an overnight fast of at least 8 hours. On Treatment Period 2, Day 1, subjects will receive a single oral dose of study drug after consuming a standard high-fat breakfast. Following review of safety, tolerability, and PK data, up to 2 additional dose cohorts of healthy subjects may be added if needed to determine the study treatment for
Part B will comprise a randomised, multiple-dose, sequential-group, placebo-controlled study. Sixteen healthy subjects will be studied in 2 cohorts (Groups B1 and B2), with each cohort consisting of 8 subjects. Part B may start after completion of Group A1, at a dose equal to or less than given in Part A.
On Day 1, 6 subjects will be randomised to receive KL1333 and 2 subjects will be randomised to receive placebo. The preliminary planned doses of KL1333 for Groups B1 and B2 are 25 and 50 mg, respectively, once daily (QD) on Days 1 to 10. Dose levels, dose frequency, and dietary state will be confirmed following review of safety, tolerability, and PK data from Part A and ongoing data from Part B. Additionally, a dose selection conference meeting will be held before each cohort in Part B where blinded data from the previous cohort will be reviewed before a decision is made about proceeding to the next cohort. Following review of safety, tolerability, and PK data, up to 3 additional dose cohorts of healthy subjects may be added to further explore the PK, safety, and tolerability of KL1333. If additional cohorts are required, each cohort will consist of 8 subjects, with 6 subjects receiving KL1333 and 2 subjects receiving placebo. The dose level will not exceed 600 mg, and the predicted exposure following multiple daily dose administration in any subject in Part B will not exceed an AUC0-24 of 51,800 ng.h/mL for derived total KL1333. There will be a minimum of 6 days between dose escalations for each cohort (between the last dose of one cohort and the first dose of the next cohort). Subjects will return for a Follow-up visit on Day 15, 5 days after their final dose.
Part D will comprise a randomised, multiple-dose, placebo-controlled study. Sixteen healthy subjects will be studied in 2 cohorts (Groups D1 and D2), with each cohort consisting of 8 subjects. Part D will start after completion of Part B, and the Part D groups may be run in parallel.
On Day 1, 6 subjects will be randomised to receive KL1333 and 2 subjects will be randomised to receive placebo. The doses of KL1333 for Groups D1 and D2 are 75 mg twice daily (BID) and 50 mg 3 times daily (TID), respectively, on Days 1 to 10 with a single dose administration on Day 10.
The safety and tolerability of KL1333 in healthy volunteers was explored at multiple ascending doses in part B and D of the study. Part D specifically explored if tolerability was improved by dividing the daily dose into two and three administrations respectively. Cohorts B3, D1 and D2 all received total daily doses of 150 mg for 10 days. Cohort B3 received 150 mg once daily (QD), cohort D1 received 75 mg twice daily (BID), and cohort D2 50 mg three times daily (TID). […]

[5] = test system: blood lactate/pyruvate ratio; test: Blood lactate/pyruvate ratio in healthy volunteers; assay type: in vivo, human
Procedure: FIG. 5. Healthy volunteers were treated with KL1333 (n=36) or placebo (n=14) once daily for 9 days prior to blood sampling for measurement of lactate and pyruvate concentrations and calculation of a lactate pyruvate ratio. Data for different doses of KL1333 were combined, including 50 mg QD, 50 mg TID, 75 mg QD, 75 mg BID, 150 mg QD and 250 mg QD.
FIG. 6. The blood lactate/pyruvate concentration ratio decreased with increasing concentration of KL1333 in plasma Day 10 after treatment with KL1333. Healthy volunteers were treated with KL1333 (n=36) or placebo (n=14) once daily for 9 days prior to blood sampling for measurement of lactate and pyruvate concentrations and calculation of a lactate pyruvate ratio. Data for different doses of KL1333 were combined from 7 cohorts consisting of two placebo and 6 KL1333 subjects, treated with 25 mg QD, 50 mg QD, 50 mg TID, 75 mg QD, 75 mg BID, 150 mg QD and 250 mg QD. Data were normalized against the cohort mean value for each cohort.
(§2) For Parts B through D, blood biomarker assessments will include: • nicotinamide adenine dinucleotide (oxidized form; NAD^+)/nicotinamide adenine dinucleotide (reduced form; NADH) concentrations and ratio • fibroblast growth factor-21 (FGF21) • growth/differentiation factor-15 (GDF15) • lactate/pyruvate concentrations and ratio.

[6] = Plasma exposure of Total KL1333, Part C patients with primary mitochondrial disease; settings: human, in vivo
Excerpt: as §1
It is planned for patients to receive study drug QD on Days 1 to 10. Dose levels, dose frequency, and dietary state will be confirmed following review of safety, tolerability, and PK data from Part B, and unless deemed very unfavourable for the conduct of the study, the patients will not be required to be fasting prior to dosing. Study drug will be administered by clinical site staff when the patients are resident at the clinical site or return for outpatient visits. On all other days, patients will record drug administration and any concomitant medications in a diary that will be provided to each patient. Diaries will be reviewed and checked for compliance during the outpatient visits and as part of the check-in procedures on Day 10. Clinical symptoms that occur while patients are not resident at the site will be collected by the site using standard adverse event (AE) reporting procedures. […]

NQO1 = NQO1 (Homo sapiens, UniProt P15559); test: NQO1 substrate activity; assay type: biochemical; settings: compared with other NQO1 active compounds (ie, idebenone)
Excerpt: KL1333 is a novel compound under development for primary mitochondrial diseases. KL1333 acts as a substrate for NAD(P)H:dehydrogenase [quinone]1 (NQO1), which produces nicotinamide adenine dinucleotide (oxidized form; NAD^+) by transferring 2 electrons to KL1333 using nicotinamide adenine dinucleotide (reduced form; NADH) as a cofactor. KL1333 transfers these electrons to the mitochondrial electron transport system, directly promoting ATP production. Additionally, the elevated NAD^+ levels lead to activation of mitochondrial biogenesis pathways, such as sirtuin 1 (SIRT1), 5′-adenosine monophosphate-activated protein kinase (AMPK), and peroxisome proliferator-activated receptor gamma coactivator 1-alpha (PGC-1α), thereby improving mitochondrial function.

[7] = test system: lactate/pyruvate ratio, serum niacinamide, serum xanthine; test: Blood and serum biomarkers in PMD patients; assay type: in vivo, human
Procedure: FIG. 7. Lactate/Pyruvate ratio in PMD patients treated daily with 50 mg KL1333 (n=6) or placebo (n=2) for 10 days.
FIG. 8. Serum niacinamide is an early biomarker of response to KL1333 treatment. PMD patients were treated with 50 mg KL1333 QD (n=6) or placebo (n=2). The data are expressed as the ratio of the niacinamide concentrations in Day 2 and Day 1 serum samples.
FIG. 9. Serum xanthinse is an early biomarker of response to KL1333 treatment. PMD patients were treated with 50 mg KL1333 QD (n=6) or placebo (n=2). The data are expressed as the ratio of the xanthine concentrations in Day 2 and Day 1 serum samples.
as §2

[8] = test system: patients with primary mitochondrial disease; test: Daily Fatigue Impact Scale (D-FIS) in primary mitochondrial disease patients; assay type: in vivo, human
[9] = test system: patients with primary mitochondrial disease; test: Clinical outcome assessments overall in primary mitochondrial disease patients; assay type: in vivo, human
[10] = test system: patients with primary mitochondrial disease; test: NeuroQoL Short Form Fatigue in primary mitochondrial disease patients; assay type: in vivo, human
[11] = 50 mg QD, after one day of treatment (Day 2/Day 1)
[12] = 50 mg once daily, 10 days of dosing, PMD patients

Sequence of NQO1 (P15559 whole entry, species assumed): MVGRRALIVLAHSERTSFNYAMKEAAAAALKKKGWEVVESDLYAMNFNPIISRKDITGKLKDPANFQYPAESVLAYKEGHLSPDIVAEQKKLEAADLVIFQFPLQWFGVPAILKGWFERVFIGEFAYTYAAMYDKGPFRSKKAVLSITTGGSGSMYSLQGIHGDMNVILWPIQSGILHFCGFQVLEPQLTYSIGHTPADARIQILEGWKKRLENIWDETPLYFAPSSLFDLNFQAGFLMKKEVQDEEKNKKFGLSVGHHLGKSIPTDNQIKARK

CC(C)c1nc2c([nH]1)C(=O)C(=O)c1ccccc1-2 [KL1333]
30s Sit-to-stand test, mean change [1]: greater improvement | tolerability [2]: well tolerated | hygroscopicity [3]: non-hygroscopic | solubility in water [3]: practically insoluble | ATP [4]: increased ATP | NAD+ [4]: increased NAD^+ | ROS [4]: decreased ROS | SIRT1, AMPK and PGC-1α activation [4]: activation of SIRT1, AMPK, and PGC-1α | lactic acid [4]: decreased lactic acid | mitochondrial oxidative phosphorylation function [4]: improved mitochondrial oxidative phosphorylation function | frequency and severity of loose stool episodes (Bristol Stool chart) (healthy subjects; 150 mg daily for 10 days: 75 mg BID and 50 mg TID versus 150 mg QD): improved | tolerability (healthy subjects; QD doses of 150 mg, healthy subjects): tolerated | tolerability (healthy subjects; QD doses of 250 mg, healthy subjects, GI TEAEs): poorly tolerated | tolerability (healthy subjects; QD doses of 25 to 75 mg, healthy subjects): well tolerated | tolerability of BID or TID versus QD dosing (healthy subjects; daily doses of 150 mg, healthy subjects, GI-related adverse events): better tolerated | clinical chemistry, hematology, urinalysis data (healthy subjects; mean or individual subject data during the study): no apparent treatment- or dose-related trends | tolerability (healthy subjects; single oral doses of 25 mg with or without food, healthy subjects): well tolerated | vital signs, 12-lead ECGs, physical examinations (healthy subjects; whole study): no apparent treatment- or dose-related trends | serious adverse events (healthy subjects; whole study: 64 healthy volunteers and 8 patients, KL1333 or placebo): no serious adverse events | blood lactate pyruvate ratio in relation to plasma concentration of KL1333 ([5]; Day 10, plasma concentration prior to blood sampling): lowest in individuals with a plasma concentration of KL1333 exceeding 100 ng/ml | blood lactate/pyruvate ratio ([5]; after 10 days of treatment, doses combined (n=36 versus placebo n=14)): trend of decreasing | pharmacokinetics profile, healthy volunteers versus patients [6]: similar | potency as substrate to NQO1 (NQO1): more potent substrate to NQO1 than other NQO1 active compounds | serum niacinamide [7, 11]: increased | serum xanthine [7, 11]: increased | lactate/pyruvate ratio, Day 10 compared to Day 1 ([7]; 50 mg daily for 10 days (n=6), not seen in placebo): decreased | Daily Fatigue Impact Scale, mean change ([8]; 50 mg QD for 10 days, versus placebo, reduction of fatigue impacts on daily activities): greater improvement | correlation of DFIS change with Total KL1333 Ctrough ([8]; change from day-1 to day 10, Ctrough at day 10): statistically significant correlation | fatigue [9, 12]: marked improvement in fatigue | muscle strength [9, 12]: marked improvement in muscle strength | combatting fatigue and muscle weakness ([9]; clinical outcome assessments of primary mitochondrial disease patients): effective | NeuroQoL Short Form Fatigue, mean change ([10]; 50 mg QD for 10 days, baseline to day 10, n=6 versus placebo n=2): improvement | NeuroQol fatigue change from baseline, high exposure group versus placebo ([10]; 50 mg QD for 10 days, high exposure patients, Kruskal-Wallis test): statistically significant better than placebo | correlation of NeuroQol SF Fatigue raw score change with Total KL1333 Ctrough ([10]; change from baseline to day 10, Ctrough at day 10): statistically significant correlation
